Source: patent US11491147B2, “Combination drug therapy reduces PARP-1 related DNA repair and increases the efficacy of genotoxic agents” (Indiana University Research and Technology Corporation, priority 2016, dated 2022)
Where two headings read alike, the source gives them in different places.

What was measured:
M/FASN cells = assay: MTT survival assay, M/FASN cells; format: cell-based, human
Description: FIG. 5. PARP-1 mediates FASN-associated DNA repair and genotoxic treatment resistance. A-B, Effect of FASN on PARP-1 expression as determined by Western blot (A) and real-time RT-PCR (B) in stable FASN-over-expressing and -knockdown cells. C, Effect of FASN on IR-induced histone-H3 PARylation. Cells were pre-treated without or with 0.5 μM olaparib followed by treatment with or without IR and harvested at different times following IR for lysate preparation, immunoprecipitation of histone-H3 in the presence of 100 μM PARG inhibitor, gallotannin, and Western blot analyses of PARylated and total histone H3. D, Effect of PARP-1 knockdown on FASN-induced NHEJ up-regulation. FASN-over-expressing (P/FASN) and the control (P/Vec) cells were transiently transected with PARP-1 or scrambled control siRNA followed by Western blot analysis of PARP-1 (left panel) and NHEJ activity assay (right panel) (n=3, *p<0.05; **p<0.01). E, Effect of PARP-1 inhibition on survival. M/FASN cells were treated with 1 mM 3-ABA, 0.5 μM olaparib, or their vehicle control for 48 hours followed by MTT assay. F, Effect of PARP-1 inhibition on doxorubicin resistance. M/FASN cells were pre-treated for 6 hours by 1 mM 3-ABA, 0.5 μM olaparib, or transfected with control or PARP-1 siRNA followed by tested doxorubicin resistance using MTT survival assay. (n=3-4, *p<0.05, **p<0.01).
To determine if FASN enhancement of PARP-1 likely mediates FASN function in cellular resistance to DNA damages, a survival assay of […] cells following doxorubicin treatment in the absence or presence of PARP-1 inhibitors, 3-ABA (3-aminobenzamide) or olaparib was carried out. Now referring to FIG. 5E, either 1 mM 3-ABA or 0.5 μM olaparib alone had no effect on M/FASN cell survival.
MTT survival assay was performed as previously described (see e.g., Yang Y, Chen Q, & Zhang J T (2002) Structural and functional consequences of mutating cysteine residues in the amino terminus of human multidrug resistance-associated protein 1. J. Biol. Chem. 277(46):44268-44277). Briefly, cells in 96-well plate were cultured for 24 hours and treated with various concentrations of doxorubicin, bleomycin, cisplatin or H2O2 continuously for 3 days followed by addition of thiazolyl blue tetrazolium bromide (MTT) to a final concentration of 0.5 mg/mL and incubation at 37° C. for 4 hours. Medium was then removed and formazan was solubilized in dimethyl sulfoxide and the OD570 was measured by a Synergy H1 hybrid reader (BioTek, Winooski, Vt.). IC50's were obtained from the fitted curves generated by GraphPad Prism 5.0 program (GraphPad Software, Inc.). Relative resistance factor (RRF) is calculated using the formula RRF=IC50 (test)/IC50 (control) with control normalized as 1. […]

breast cancer cell lines = assay: Survival of breast cancer cell lines, methylene blue staining assay (FIG. 24); format: cell-based, human; conditions: for activity in suppressing breast cancer cell survival, compared with lansoprazole: lansoprazole metabolites, MCF7, MDA-MB-231, MDA-MB-468 cells; for performance against breast cancer cell lines, compared with lansoprazole: non-FDA-approved PPIs, different breast cancer cell lines
From the text: (§1) FIG. 24. […] Actin was used as a loading control. D. effect of non-approved PPIs on the survival of breast cancer cell lines.

PARP1 and γ-H2AX = assay: Western blot of PARP1 and γ-H2AX (FIG. 24C); format: cell-based; conditions: dose-dependent
Description: as §1
Cells were harvest and then lysed in TNN buffer with 1 mM DTT, 1 mM PMSF and 0.1% SDS for 30 min at 4° C. with occasional agitation. The cells were sonicated briefly and total proteins were harvested after centrifugation of the lysate at 16,000 g for 15 minutes at to remove cell debris. The protein concentration of cell lysates was determined using a Bio-Rad protein assay kit. Total cell lysates were then separated by SDS-PAGE, transferred to a polyvinylidene fluoride membrane, and probed using antibodies against fatty acid synthase (610963, BD biosciences), PARP-1 (46D11, CST), γ-H2AX (05-636, Millipore), and (3-Actin (A2228, Sigma). The blot was then probed with horseradish peroxidase-conjugated secondary antibodies (Sigma) and signals were captured on X-ray films following developing with Amersham ECL Western Blotting Detection Reagent (RPN2106, GE).

breast cancer patients = assay: Retrospective survival analysis of electronic medical records of breast cancer patients; format: in vivo, human
Description: FIG. 16. Retrospective survival analysis of breast cancer patients with or without use of proton pump inhibitors (PPIs). De-identified electronic medical records of 6,752 breast cancer patients were retrieved from the database of Indiana Network for Patient Care (INPC) and subjected to Kaplan-Meier survival analysis in association with PPI usage in all patients (A) or in triple negative breast cancer patient subgroup (B). The p-value and hazard ratio (HR) were calculated from Cox proportional hazard models, which were adjusted for age, tumor stage, and time of first diagnosis.
Because PPIs are widely used for treatment of a variety of acid-related digestive disorders, many cancer patients may use PPIs without the knowledge that the combination of PPIs with their chemotherapy may have helped them. To this end, a retrospective association analysis was conducted using de-identified electronic medical records (EMR) of 6,752 breast cancer patients from Indiana Network for Patient Care (INPC). The average age at diagnosis is 58.9 years (range 19-102) and average age at death or last visit is 61.5 (range 21-104). Of this cohort, 534 patients took one or more PPIs after diagnosis as recorded in the EMR. There are 488 triple negative breast cancer (TNBC) patients, among them 35 used PPIs. Using the Cox proportional hazard regression model, the patient overall survival was analyzed against PPI usage. […] The protective effect of PPIs on patient survival was adjusted for age, tumor stage, and time of first diagnosis.
The patient database contains three domains of electronic medical records (EMR) of 6,752 de-identified breast cancer patients from Indiana Network for Patient Care (INPC). The first domain contains patient characteristics as shown in Supplemental Table 51. The second domain contains medical test results including body weight, blood tests, and office visit information. The third domain contains prescription information for each patient. The use of this database has been approved by IRB at Indiana University for this study.
The first task is to remove null and duplicated values and to resolve contradicting records. For patients that have contradicting records, different rules for different conflicts were followed. For conflicts on the first visit or diagnosis time, the earlier record at younger age were used as the first diagnosis and considered the later one as system update. For all other information including diagnosis information such as cancer subtype, the latest record was used as it is thought to be more accurate.
Next, the plain text information from the first domain of the database including but not limited to ER, PR, and HER2 test results, treatment plans, and therapy types were digitized. The record that is not clear was marked as unknown. For example, the HER2 status with a 2+ score, a borderline score, from IHC staining was usually confirmed with FISH test. Patients with a 2+ score but without a FISH test result were considered unknown in this study.
Further, the days of patient survival from data in the first domain were validated using prescription history of the same patient in the third domain of the database. When there is a conflict, the last day of office visit or prescription refill, whichever is later, was recorded as the last day of visit or death. Moreover, patients who took PPIs prior to their diagnosis of breast cancer but stopped taking them after diagnosis were considered non-PPI users in this study.

MCF7 cells = assay: Colony formation survival assay, MCF7 cells; format: cell-based, human; conditions: Homo sapiens
Description: FIG. 15. […] B. Combination index. Combination index (CI) was derived using the data shown in A and the formula: […]
For each potency ratio, combination index of three effective concentrations at IC30, IC50, and IC70 were calculated for synergistic effects using Prism 7.0.
Cells were then harvested and re-plated in 6-well plates at a density of 200 cells/well followed by IR treatment at different doses and colony formation assay or collection of cells for Western blot analysis. Concentration-response curves and IC50 values were calculated using Prism 7.0 (GraphPad, La Jolla, USA).

[1] = pairwise versus Lansoprazole users, all patients
[2] = pairwise versus Omeprazole users, all patients
[3] = pairwise versus Pantoprazole users, all patients
[4] = single-PPI users versus No PPI, all breast cancer patients
[5] = versus Lansoprazole, AA patients
[6] = versus Lansoprazole, CA patients
[7] = versus No PPI, African American (AA) patients
[8] = versus No PPI, Caucasian (CA) patients
[9] = versus Pantoprazole, CA patients

NC(=O)c1cccc(N)c1 [3-ABA, 3-aminobenzamide]
effect on M/FASN cell survival (M/FASN cells; 1 mM 3-ABA or 0.5 μM olaparib alone, 48 hours): no effect
doxorubicin resistance level of M/FASN cells (M/FASN cells; pre-treated for 6 hours by 1 mM 3-ABA or 0.5 μM olaparib): significantly reduced

Cc1c(OCC(F)(F)F)ccnc1CSc1nc2cc(O)ccc2[nH]1 [5-hydroxy lansoprazole sulfide]
suppression of triple negative breast cancer cell survival, compared with lansoprazole (breast cancer cell lines; triple negative breast cancer cell lines): significantly more effective than lansoprazole
PARP1 expression (PARP1 and γ-H2AX): inhibited PARP1 expression
production of γ-H2AX (PARP1 and γ-H2AX): induced production of γ-H2AX in a dose-dependent manner

Cc1c(OCC(F)(F)F)ccnc1C[S+]([O-])c1nc2ccc(O)cc2[nH]1 (stereo not shown) [5-hydroxy lansoprazole]
activity in suppressing breast cancer cell survival, compared with lansoprazole (breast cancer cell lines): lost their activity

COc1ccc2nc([S@@+]([O-])Cc3ncc(C)c(OC)c3C)[nH]c2c1 [Esomeprazole, esomeprazole]
HR (CoxPH ratio), overall survival (breast cancer patients; [1]): 2.57
HR (CoxPH ratio), overall survival (breast cancer patients; [2]): 1.6
HR (CoxPH ratio), overall survival (breast cancer patients; [3]): 1.44
HR (CoxPH ratio), overall survival (breast cancer patients; pairwise versus Rabeprazole users, all patients): 0.92
HR (CoxPH ratio), overall survival (breast cancer patients; [4]): 0.44
HR, overall survival (breast cancer patients; [5]): 7.79*10^7
HR, overall survival (breast cancer patients; [6]): 1.74
HR, overall survival (breast cancer patients; [7]): 0.49
HR, overall survival (breast cancer patients; [8]): 0.35
HR, overall survival (breast cancer patients; versus Omeprazole, AA patients): 1.47
HR, overall survival (breast cancer patients; versus Pantoprazole, AA patients): 0.84
HR, overall survival (breast cancer patients; [9]): 2.08
HR, overall survival (breast cancer patients; versus Rabeprazole, CA patients): 0.66

Cc1c(OCC(F)(F)F)ccnc1CSc1nc2ccccc2[nH]1 [lansoprazole sulfide]
activity in suppressing breast cancer cell survival, compared with lansoprazole (breast cancer cell lines): lost their activity

Cc1c(OCC(F)(F)F)ccnc1CS(=O)(=O)c1nc2ccccc2[nH]1 [lansoprazole sulfone]
activity in suppressing breast cancer cell survival, compared with lansoprazole (breast cancer cell lines): lost their activity

COc1ccc2[nH]c([S+]([O-])Cc3ncc(C)c(OC)c3C)nc2c1 (stereo not shown) [omeprazole]
IC50 (MCF7 cells; MCF7, read-out: IC50, cell survival, single agent, MCF7 cells, colony formation): 3100 nM
IC50 (MCF7 cells; MCF7, read-out: IC50 of omeprazole in the presence of olaparib, in the presence of 0.1 μM olaparib, MCF-7 cells): 1000 nM
IC50 (MCF7 cells; MCF7, read-out: IC50 of omeprazole in the presence of olaparib, in the presence of 0.3 μM olaparib, MCF-7 cells): 400 nM
HR (CoxPH ratio), overall survival (breast cancer patients; [4]): 0.28
HR, overall survival (breast cancer patients; [7]): 0.33
HR, overall survival (breast cancer patients; [8]): 0.27

COc1ccnc(C[S+]([O-])c2nc3ccc(OC(F)F)cc3[nH]2)c1OC (stereo not shown) [pantoprazole]
HR (CoxPH ratio), overall survival (breast cancer patients; [1]): 1.43
HR (CoxPH ratio), overall survival (breast cancer patients; [2]): 1.11
HR (CoxPH ratio), overall survival (breast cancer patients; [4]): 0.32
HR, overall survival (breast cancer patients; [5]): 9.89*10^8
HR, overall survival (breast cancer patients; [6]): 0.59
HR, overall survival (breast cancer patients; [7]): 0.59
HR, overall survival (breast cancer patients; [8]): 0.18
HR, overall survival (breast cancer patients; versus Omeprazole, AA patients): 1.85
HR, overall survival (breast cancer patients; versus Omeprazole, CA patients): 0.66

COCCCOc1ccnc(C[S+]([O-])c2nc3ccccc3[nH]2)c1C (stereo not shown) [rabeprazole]
HR (CoxPH ratio), overall survival (breast cancer patients; [1]): 2.13
HR (CoxPH ratio), overall survival (breast cancer patients; [2]): 1.50
HR (CoxPH ratio), overall survival (breast cancer patients; [3]): 1.43
HR (CoxPH ratio), overall survival (breast cancer patients; [4]): 0.47
HR, overall survival (breast cancer patients; [6]): 1.99
HR, overall survival (breast cancer patients; [8]): 0.5031
HR, overall survival (breast cancer patients; versus Omeprazole, CA patients): 1.77
HR, overall survival (breast cancer patients; [9]): 2.57

COc1ccc2[nH]c([S+]([O-])Cc3ncc(C)c(OC)c3C)nc2n1 (stereo not shown) [tenatoprazole]
performance against breast cancer cell lines, compared with lansoprazole (breast cancer cell lines): performed better than lansoprazole only against some cell lines

anaprazole
performance against breast cancer cell lines, compared with lansoprazole (breast cancer cell lines): performed better than lansoprazole only against some cell lines
